{"source": "patent US12447163B2", "about": "“Liposomal formulations of Bcl inhibitors” (Jazz Pharmaceuticals Therapeutics, Inc., priority 2021, dated 2025)", "system": "platelet count", "assay": "Platelet count (thrombocytopenia / platelet protection) after administration of liposomal formulations or free drug", "type": "in vivo, Female B6D2F1/J mice", "conditions": "liposomal formulations at various doses or free drug, FIG. 7F", "protocol": "Female B6D2F1/J mice were purchased from Jackson Laboratory and acclimated 7 days prior to study start. Mice were caged in autoclaved Allentown ventilated caging at a capacity of 3 animals/cage during the course of the experiment. Cages were changed bi-weekly. Environmental enrichment that was supplied for cages were Nestlets from Ancare, transparent tinted polycarbonate Mouse Igloos from Bio-Serv on Envigo 7097¼″ corn cob bedding. All enrichment was added to the cage prior to the cages being autoclaved. Mice were fed Envigo Teklad Global Rodent Diet 2018. The rodent food was kept in the hoppers of the wire lids and was changed bi-weekly. Reverse osmosis water was supplied through Avidity Science automatic watering valves at a flow rate of 25-50 ml/min. Environmental control of the lights and monitoring of temperature, humidity and airflow was done by WatchDog. Light cycles in the animal holding rooms was set for 12 hours on and 12 hours off. Temperature, humidity and airflow were maintained and controlled by BCCRC facilities.\nMice were injected with the required volume to administer the prescribed dose (10 mg/kg) to the animals based on individual mouse weights using a 28 G needle. The injection volume was 200 μL/20 g mouse. The mice were briefly (less than 30 sec.) restrained during i.v. injections. […]"}
{"smiles": "CN(C)CC[C@H](CSc1ccccc1)Nc1ccc(S(=O)(=O)NC(=O)c2ccc(N3CCN(Cc4ccccc4-c4ccc(Cl)cc4)CC3)cc2)cc1[N+](=O)[O-]", "note": "[Compound 7]", "values": [{"measurement": "tolerability (platelet count)", "value": "well tolerated at the tested doses"}]}
